Entries after “also recorded” stand apart in the source; their conditions may differ.
Assays:
[1] = In vitro H2O hydrolysis and oxygen evolution catalyzed by LEAT protein under light; format: biochemical; design: key to O2 evolution activity: +: similar O2 evolution activity as that of YFP; ++: higher O2 evolution activity than that of YFP by at least one order of magnitude; weak: lower activity than that of YFP by at least one order of magnitude
Description: 1.85 ml of 50 mM phosphate buffer (pH6.5) was added in the reaction vessel of Clark-type oxygen electrode, then LEAT proteins (at a final concentration of 0.02-1 μg/ml) and 400 μM 2,3,5-trimethyl-1,4-benzoquinone (TMBQ) or other quinones were sequentially added into the buffer in dark. The oxygen evolution rate was measured under the light with corresponding excitation wave length for LEAT proteins and light intensity at 1-2 μmol m^−2 s^−1.

[2] = system: Brassica; experiment: Net photosynthetic rate of transgenic Brassica; format: in vivo, Brassica napus L.; conditions: for net photosynthetic rate, increase compared with wild type: transgenic Brassica
Description: Gas exchange was measured using photosynthetic infrared gas analysis system (LI-6400, Li-Cor Inc, Lincoln, Nebr., USA). The net photosynthetic rate (Pn) and stomatal conductance (Gs) was measured. Sunlight and artificial light were used as artificial light sources for measurement. The ambient CO2 during the measurements was controlled at 400 μmol mol^−1. The ambient temperature was controlled at the temperature for plant growth. Six leaves were measured for each line of plant. In addition, for the CO2 response curve of the plant leaf, the light intensity was set at PPFD of 1500 μmol m^−2s^−1 with artificial light source. The Pn under 50-1200 ppm CO2 was measured.

[3] = system: Brassica; experiment: Growth, biomass and yield of transgenic Brassica; format: in vivo, Brassica napus L.; conditions: for fresh and dry weights vs WT and empty vector control: 4-week-old transgenic Brassica; for plant growth vs WT and empty vector control: 3 weeks
Excerpt: FIG. 14. (A) WT, empty vector control (pHB) and mCherry transgenic Brassica (L1-L3) were germinated and grown for one week in the phytotron under white light (PPFD:250 μmol m^−2s^−1). Then the plants were moved and grown under white light, green light (PFD: 60 μmol m^−2s^−1) or red+blue light (red light PFD; 60 μmol m^−2s^−1, blue light PFD; 10 μmol m^−2s^−1) for another 3 weeks and photos were taken, (B) Comparison of the fresh weights and dry weights of WT and mCherry transgenic Brassica grown under white light, green light or red+blue light for four weeks. Values in the figures are means±SD, for WT, n=10, for transgenic plant transformed with empty vector control pHB and mCherry, data were the averages of three independent lines and 10 plants for each line. **p≦0.01. (C) Net photosynthetic rate of WT and mCherry transgenic Brassica measured under different light qualities. Nine-week-old WT and mCherry transgenic Brassica grown in the phytotron (PPFD: 250 μmol m^−2s^−1) were transferred and treated with different qualities of light for 4 days and net photosynthetic rate was measured. (D) Net photosynthetic rate of WT and mCherry transgenic Brassica grow in the natural field measured under different PPFD as light source. Net photosynthetic rate was measured in situ between 10:00 am and 12:00 pm. […] FIG. 15. (A) Measurement of the fresh weight and dry weight per plant of 7-week-old WT and mCherry transgenic Brassica plants grown in the natural field conditions. Values in the figures are means±SD, n=10. *p≦0.05, **p≦0.01. (B) Comparison of the plant size, silique size, seed size, grain yield per plant and 1000-seed weight at the harvesting time. Values in the figures are means±SD, n=10. *p≦0.05, **p≦0.01. Wild type (WT), transgenic Brassica with empty vector (pHB) and mCherry transgenic Brassica (L1-L3) were germinated in the phytotron under white light (light intensity: 250 μmol m^−2s^−1) for 1 week. Then the plants were transferred and continued to grow under white light, green light (light intensity: 60 μmol m^−2s^−1), red+blue light (intensity of red light: 60 μmol m^−2s^−1; intensity of blue light: 10 μmol m^−2s^−1). The […] were taken three weeks after transfer.

[4] = system: Brassica; experiment: Millisecond-delayed light emission in transgenic Brassica leaves; format: in vivo, Brassica napus L.; conditions: white light and green light
Description: Measurements of millisecond-delayed light emission were carried out according to the method described in Chen et al., 2010 (Reversible association of ribulose-1,5-bisphosphate carboxylase/oxygenase activate with the thylakoid membrane depends upon the ATP level and pH in rice without heat stress. Journal of Experimental Botany 61: 2939-2950). Leaf samples with same size were treated in dark for same time and millisecond-delayed light emission was measured in situ. The leaf sample was illuminated with light passing through holes arranged on two rotating wheels, so that the measurement can be partitioned into consecutive cycles of 1 ms excitation by light followed by 4.6 ms darkness. The delayed light emission between 2.8 and 3.8 ms after every flash was recorded. The white light source was supplied by a halogen lamp, and the green light source was obtained by passing the white light source through a 530 nm filter.

[5] = system: Atp B, D1, Psa D, Lhcb1, Lhca1 and cyt f; experiment: Western blot of photosynthesis related proteins in transgenic Brassica leaves; format: in vivo, Brassica napus L.
[6] = system: Rubisco; experiment: Rubisco activity assay in transgenic Brassica leaves; format: in vivo, Brassica napus L.
Description: Ribulose-1,5-bisphosphate carboxylase/oxygenase (Rubisco) carboxylase activity assay: Soluble proteins were extracted from fresh leaves with extraction buffer (50 mM Tris-HCl pH 7.8, 1 mM EDTA, 50 mM NaCl, 2 mM β-Mercaptoethanol). The homogenate was centrifuged (12,000 g for 6 min at 4° C.) and the supernatant was used for Rubisco activity assay. Carboxylase activity of Rubisco was measured with ^14C-labelled method as described in (Wang Z Y, Snyder G W, Esau B D, Portis A R, Ogren W L (1992) Species-dependent variation in the interaction of substrate-bound ribulose-1,5-bisphosphate carboxylase/oxygenase (Rubisco) and Rubisco activase. Plant Physiology 100: 1858-1862).

[7] = system: Brassica; experiment: Soluble protein content of transgenic Brassica; format: in vivo, Brassica napus L.; conditions: three lines
Description: In this invention, three lines of mCherry transgenic Brassica were selected and the content of soluble protein was measured and compared with that in WT. The content of soluble protein in mCherry transgenic Brassica was increased.

[8] = system: rice; experiment: Phenotype of transgenic rice; format: in vivo
Description: Rice transformation was performed with method described in Liu Qiaoquan, Zhang Jingliu, Wang Zongyang, Hong Mengming and Gu Minghong (1998). A highly efficient transformation system mediated by Argrobacteriun tumefaciens in rice (Oryza sativa L.). Acta Phytophysiologica Sinica 24, 259-271.

[9] = transgenic Brassica, young seedling stage

mCherry: red fluorescent protein, amino acid sequence SEQ ID NO: 2
water photohydrolysis and O2 evolution activity under light ([1]; TMBQ substituted with DQ or UQ): does not have water photohydrolysis and O2 evolution activity
activity of water hydrolysis among the quinones tested (order) ([1]; different quinones, under light): TMBQ>DMBQ2>MBQ>DMBQ1
O2 evolution activity ([1]; water hydrolysis and O2 evolution under light, relative to YFP): +
net photosynthesis rate vs WT ([2]; phytotron-grown transgenic Brassica, white light and green light): significantly increased
net photosynthesis rate vs WT and empty vector ([2]; transgenic Brassica in natural field conditions, different light intensities): significantly increased
net photosynthetic rate, increase compared with wild type ([2]; 400 μmol m^−2s^−1): 31%
net photosynthetic rate, increase compared with wild type ([2]; 800 μmol m^−2s^−1): 28%
net photosynthetic rate, increase compared with wild type ([2]; 1200 μmol m^−2s^−1): 16%
fresh and dry weights vs WT and empty vector control ([3]; red+blue light): no significant difference
fresh and dry weights vs WT and empty vector control ([3]; white or green light): significantly increased
1000-seed weight, increase vs WT ([3]; transgenic Brassica): 25%
grain yield per plant, increase vs WT ([3]; transgenic Brassica): 30 to 100%
1000-seed weight vs WT (in words) ([3]; transgenic Brassica at harvest): increased
grain yield per plant vs WT (in words) ([3]; transgenic Brassica at harvest): increased
seed size vs WT ([3]; transgenic Brassica at harvest): significantly increased
growth and biomass accumulation ([3]; transgenic Brassica, natural field conditions): stimulated the growth and biomass accumulation
plant growth vs WT and empty vector control ([3]; transgenic Brassica, red+blue light): No significant difference
plant growth vs WT and empty vector control ([3]; transgenic Brassica, white light and green light): grew better than WT and empty vector control plants
dry weight, increase vs WT [3, 9]: 78%
fresh weight, increase vs WT [3, 9]: 66.7%
slow phase of millisecond delay light evolution (ms-DLE) vs WT [4]: higher
expression of photosynthesis related proteins vs WT ([5]; transgenic Brassica grown under red+blue light): no significant difference
expression of photosynthesis related proteins vs WT ([5]; transgenic Brassica grown under white light): significantly increased
Rubisco activity and Rubisco activation state [6]: increased
content of soluble protein vs WT [7]: increased
plant growth vs WT [8]: grow better than WT; also recorded: improve the growth
seed size and grain yield per plant vs WT [8]: increase
